Like-named read-outs stand apart in the source and are kept apart here.
Key:
Rat Liver [1] = conditions: ref ToxRefDB, cited from earlier work
Rat Liver [2] = conditions: ref ToxRefDB, cited from earlier work; remark: listed apart in the source
Rat Liver [3] = conditions: ref ToxRefDB, cited from earlier work; remark: listed apart in the source
PXR (NR1I2) [4] = biological target: T1, PXR (NR1I2) (Homo sapiens, UniProt O75469); test: ATG_PXR_TRANS: Factorial reporter gene assay (HepG2); type: cell-based; set-up: endogenous in cells; host or cells: HepG2
T1 sequence (O75469 1-434): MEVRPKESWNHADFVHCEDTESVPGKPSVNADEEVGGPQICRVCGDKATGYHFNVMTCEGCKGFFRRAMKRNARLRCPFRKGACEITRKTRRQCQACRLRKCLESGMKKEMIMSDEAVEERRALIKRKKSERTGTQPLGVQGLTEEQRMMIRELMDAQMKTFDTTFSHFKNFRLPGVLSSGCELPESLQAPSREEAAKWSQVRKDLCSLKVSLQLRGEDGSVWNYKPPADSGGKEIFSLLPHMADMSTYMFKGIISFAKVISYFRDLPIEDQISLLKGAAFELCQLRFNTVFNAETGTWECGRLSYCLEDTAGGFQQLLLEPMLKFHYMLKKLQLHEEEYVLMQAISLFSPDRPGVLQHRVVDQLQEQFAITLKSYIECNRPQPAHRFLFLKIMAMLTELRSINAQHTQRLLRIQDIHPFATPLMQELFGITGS
Description: (§1) A multiple reporter transcription unit (MRTU) library consisting of 48 transcription factor binding sites was transfected into the HepG2 human liver hepatoma cell line. In addition to the cis-acting reporter genes (CIS), a modification of the approach was used to generate a trans-system (TRANS) with a mammalian one-hybrid assay consisting of an additional 25 MRTU library reporting the activity of nuclear receptor super-family members. […] These assays were performed by Attagene Inc. (Morrisville NC) under contract to EPA.
(§2) In addition to the cis-acting reporter genes (CIS), a modification of the approach was used to generate a trans-system (TRANS) with a mammalian one-hybrid assay consisting of an additional 25 MRTU library reporting the activity of nuclear receptor super-family members. […] Chemicals were then tested in the CIS and TRANS assays at seven concentrations starting at the MTC and followed by three-fold serial dilutions. These assays were performed by Attagene Inc. (Morrisville NC) under contract to EPA. Detailed description of the methods, data and analysis methods for this dataset will be presented in a separate publication.

PXR (NR1I2) [5] = biological target: T1, PXR (NR1I2); test: ATG_PXRE_CIS: Factorial reporter gene assay (HepG2); type: cell-based; set-up: endogenous in cells; host or cells: HepG2
Description: as §1, §2

Mouse Liver [6] = conditions: chronic study, mouse liver; ref ToxRefDB; cited from earlier work
CYP3A4 = test: CLZD_CYP3A4: Change in expression of CYP3A4 (primary human hepatocytes); type: cell-based; conditions: 24 hr
Description: (§3) This is a collection of multiplexed gene expression assays focused on Phase I and II xenobiotic metabolizing enzymes and transporters. Human primary cell cultures were treated with chemicals at 5 concentrations (0.004-40 [drawing 42] M) for 6, 24 and 48 hr. Concentration- and time-response profiles of chemicals were measured by the expression of key nuclear receptor target genes, activities of CYP1A enzymes (EROD), and cell morphology. Fourteen gene targets were monitored by quantitative nuclease protection assay including: six representative cytochrome P-450 genes, four hepatic transporters, three Phase II conjugating enzymes, and one endogenous metabolism gene involved in cholesterol synthesis. The target genes associated with nuclear receptor pathways are as follows: [drawing 43] and [drawing 44] with [drawing 45]; [drawing 46] , [drawing 47] , [drawing 48] , [drawing 49] , [drawing 50] and [drawing 51] with [drawing 52]; [drawing 53] , [drawing 54] , [drawing 55] and [drawing 56] with [drawing 57]; [drawing 58] with [drawing 59]; and [drawing 60] with [drawing 61] . Assays were run in primary human hepatocyte cultures by CellzDirect Invitrogen Inc. (Durham, NC), in collaboration with EPA.
(§4) Multiplexed Gene Expression in Human Primary Hepatocytes: This is a collection of multiplexed gene expression assays focused on Phase I and II metabolic enzymes and transporters. […] Fourteen gene targets were monitored by quantitative nuclease protection assay: six representative cytochrome P450 genes, four hepatic transporters, three Phase II conjugating enzymes, and one endogenous metabolism gene involved in cholesterol synthesis. Cells were exposed at 5 concentrations (0.004-40 µM) for 6, 24 or 48 hr. Gene targets are sentinels for five nuclear receptor signaling pathways: AhR, CAR, PXR, FXR, and PPARα. All gene are associated with nuclear receptor pathways: CYP1A1 and CYP1A2 with AHR; ABCB1, ABCG2, CYP2B6, CYP2C9, CYP2C19 and UGT1A1 with CAR; CYP3A4, GSTA2, SLCO1B1 and SULT2A1 with PXR; HMGCS2 with PPARA; and ABCB11 with FXR. […] Detailed description of the methods, data and analysis methods for this dataset will be presented in a separate publication.

CYP2B6 = test: CLZD_CYP2B6: Change in expression of CYP2B6 (primary human hepatocytes); type: cell-based; conditions: 24 hr
Description: as §3, §4

CYP1A1 = test: CLZD_CYP1A1: Change in expression of CYP1A1 (primary human hepatocytes); type: cell-based; conditions: 24 hr
Description: as §3, §4

PXR (NR1I2) [7] = biological target: T1, PXR (NR1I2); test: NVS_NR_hPXR: Human PXR Fluormone PXR (SXR) green (cell-free HTS); type: binding
From the text: These are a collection of biochemical assays measuring binding constants and enzyme inhibition values. Chemicals were initially screened at a single concentration in duplicate wells at a concentration of 10 [drawing 63] M for cytochrome P-450 assays and 25 [drawing 64] M for all others. […] These assays were run by Caliper Life Sciences (Hanover, MD) under contract to EPA. Short assay descriptions are available at: http://www.caliperls.com/products/contract-research/in-vitro/.
Cell-free HTS Assays: A collection of biochemical assays measuring binding constants and enzyme inhibition values. […] These assays were run by Caliper Life Sciences (Hanover, MD) under contract to EPA. Short assay descriptions are available at http://www.caliperls.com/products/contract-research/in-vitro/. Values for all endpoints were imported into GeneData Screener (Basel, Switzerland) and normalised to solvent controls from the same plate as the tested compounds and expressed as percent of neutral control. Concentration-response curves were fit in GeneData Screener (Basel, Switzerland) Condeseo module using the Hill equation and AC50 values were determined. […] Detailed description of the methods, data and analysis methods for this dataset are described in a separate publication.

CYP1A2 = test: CLZD_CYP1A2: Change in expression of CYP1A2 (primary human hepatocytes); type: cell-based; conditions: 24 hr
Description: as §3, §4

[8] = biological target: T2, PPARG (peroxisome proliferator-activated receptor gamma) (Homo sapiens, UniProt P37231); test: ATG_PPARg_TRANS: Factorial reporter gene assay (HepG2); type: cell-based; conditions: HepG2 reporter
T2 construct: expressed in transfected cells; host or cells: HepG2
T2 sequence (P37231 1-505): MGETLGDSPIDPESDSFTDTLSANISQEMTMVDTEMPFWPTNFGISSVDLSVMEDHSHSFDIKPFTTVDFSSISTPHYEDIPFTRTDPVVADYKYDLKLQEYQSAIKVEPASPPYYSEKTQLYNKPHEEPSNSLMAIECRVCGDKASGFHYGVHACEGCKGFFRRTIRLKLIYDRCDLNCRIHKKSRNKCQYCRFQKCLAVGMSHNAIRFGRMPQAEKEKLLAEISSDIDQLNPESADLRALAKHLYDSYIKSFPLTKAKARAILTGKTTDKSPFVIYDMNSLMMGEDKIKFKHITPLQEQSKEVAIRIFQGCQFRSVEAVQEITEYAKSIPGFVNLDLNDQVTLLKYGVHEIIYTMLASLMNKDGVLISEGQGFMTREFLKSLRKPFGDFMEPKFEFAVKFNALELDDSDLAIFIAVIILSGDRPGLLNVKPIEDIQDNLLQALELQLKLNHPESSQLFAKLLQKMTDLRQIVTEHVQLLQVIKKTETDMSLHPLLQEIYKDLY
Description: as §1, §2

Mouse Liver [9] = conditions: chronic study, mouse liver; ref ToxRefDB; cited from earlier work; remark: listed apart in the source

| Compound | CHR_Mouse_Liver_1_AnyLesion (Mouse Liver [6]) | CLZD_CYP3A4_24 (CYP3A4) | CHR_Rat_Liver_2_PreneoplasticLesion (Rat Liver [1]; chronic study, rat liver) | CHR_Rat_Liver_3_NeoplasticLesion (Rat Liver [2]; chronic study, rat liver) | CHR_Rat_Liver_1_AnyLesion (Rat Liver [3]; chronic study, rat liver) | CLZD_CYP2B6_24 (CYP2B6) | ATG_PXRE_CIS (PXR (NR1I2) [5]; HepG2 reporter) | ATG_PPARg_TRANS [8] | other results |
| --- | --- | --- | --- | --- | --- | --- | --- | --- | --- |
| CCSC(=O)N1CCCCCC1 [row 214] |  |  |  |  |  |  |  |  | CHR_Rat_Liver_2_PreneoplasticLesion (Rat Liver [1]; chronic rat study, liver): 0; CHR_Rat_Liver_3_NeoplasticLesion (Rat Liver [2]; chronic rat study, liver): 0; CHR_Rat_Liver_1_AnyLesion (Rat Liver [3]; chronic rat study, liver): 0; ATG_PXR_TRANS (PXR (NR1I2) [4]; HepG2): 4.208; ATG_PXRE_CIS (PXR (NR1I2) [5]; HepG2): 4.602 |
| COc1nc(C)nc(NC(=O)NS(=O)(=O)c2ccccc2CCC(F)(F)F)n1 [r266] | 6 | 5.037 | 0 | 0 | 0 | 5.694 | 4.377 |  |  |
| COc1nc(C)nc(NC(=O)NS(=O)(=O)c2ccccc2CCC(F)(F)F)n1 [r267] | 6 | 5.396 | 0 | 0 | 0 | 5.398 | 4.328 |  | CLZD_CYP1A1_24 (CYP1A1): 5.399; NVS_NR_hPXR (PXR (NR1I2) [7]): 4.423 |
| CCNc1nc(Cl)nc(NCC)n1 [r284] |  |  | 6 | 6 | 6 | 4.983 | 4.456 | 4.398 | CLZD_CYP1A2_24 (CYP1A2): 5.016; CLZD_CYP1A1_24 (CYP1A1): 5.018 |
| CCC/C(=N\OCC)C1=C(O)CC(CC(C)SCC)CC1=O (centres unmarked) [r283] | 6 | 4.556 | 6 | 0 | 6 | 5.082 | 4.62 |  | CHR_Mouse_Liver_2_PreneoplasticLesion (Mouse Liver [9]): 6 |
| Cc1nn(-c2cc(NS(C)(=O)=O)c(Cl)cc2Cl)c(=O)n1C(F)F [r287] | 6 | 5.471 | 0 | 0 | 0 | 5.329 | 4.409 | 4.444 | ATG_PXR_TRANS (PXR (NR1I2) [4]; HepG2 reporter): 4.469 |
| COc1cnc(OC)n2nc(NS(=O)(=O)c3c(OCC(F)F)cccc3C(F)(F)F)nc12 [r239] |  | 4.931 |  |  |  | 4.844 |  |  | CHR_Rat_Liver_2_PreneoplasticLesion (Rat Liver [1]; rat, chronic study): 0; CHR_Rat_Liver_3_NeoplasticLesion (Rat Liver [2]; rat, chronic study): 0; CHR_Rat_Liver_1_AnyLesion (Rat Liver [3]; rat, chronic study): 6; ATG_PXRE_CIS (PXR (NR1I2) [5]; HepG2): 4.585 |
| CC(COc1ccc(Oc2ccccc2)cc1)Oc1ccccn1 (centres unmarked) [r274] |  | 5.096 | 0 | 0 | 0 | 5.377 | 4.886 | 4.42 |  |

From publication PMC3038857, “Using Nuclear Receptor Activity to Stratify Hepatocarcinogens” (PLoS ONE, 2011)
